# Data published in patent publication US9526740B2, “Prochelators as broad-spectrum antimicrobial agents and methods of use” (Duke University, priority 2013, dated 2016).
# pIC50: −log10 of the molar value. Where two headings read alike, the source gives them in different places.
# How the values were obtained:
# [1] = Tolerability of intraperitoneal administration to mice; type: in vivo; details: 2 mg/kg or 10 mg/kg every second day over a two-week period
# Excerpt: 4. Toxicity of Prochelator is Activated by H2O2.
# [2] = system: C. neoformans H99 strain; test: C. neoformans growth inhibition (OD600 growth curves, MIC); type: cell-based, Cryptococcus neoformans; details: for MIC: Cryptococcus neoformans, H99STRAIN, growth inhibition of C. neoformans, no Cu added; for C. neoformans growth with Cu, without H2O2: SC media + 10 μM CuSO4, no H2O2
# Experimental: (§1) Top: Growth of C. neoformans H99 strain in SC media monitored by optical density (OD) over the course of 50 hours, where an increase in OD600 indicates normal growth. […] Bottom: In a follow up experiment to the growth curve assay shown on top, samples were taken after 50 h and plated to determine colony-forming units (CFUs).
# The ability of 8-HQ to inhibit C. neoformans growth was tested with respect to metal specificity. The concentration of the indicated metals was held constant at 10 μM and cells were incubated in the presence of escalating doses of 8HQ from 0 to 50 μM. Growth was monitored over a time course in hours (x-axis) and the optical density at 600 nm was plotted at each time (y-axis).
# WT C. neoformans H99 strain was grown in SC media+/−10 μM CuSO4 and 8HQ or QBP at indicated concentrations. Growth was monitored by OD600 and normalized to 100% viability for untreated controls after 50 h at 30° C.
# [3] = system: murine macrophage-like J774A.1 cells; test: Viability of macrophage-like cells (CellTiter-Glo)
# Experimental: Cells were seeded at 1×10^5 cells/mL in 96-well plate in DMEM+10% FBS, incubated at 37° C. for 12 h, and assayed for viability with CellTiter-Glo®.
# [4] = system: MT1 gene in WT C. neoformans; test: MT1 gene expression by qPCR normalized to ACT1; type: cell-based, Cryptococcus neoformans; details: 30 min; for MT1 induction, compound alone: 10 μM compound, no Cu
# Experimental: FIG. 6 is a graph showing Cu+8HQ (not QBP) increase expression levels of the MT1 gene. An overnight growth of WT C. neoformans was diluted in SC media to an OD600 of 0.2, incubated for 3 h to begin log phase growth, and treated with Cu and/or compound as indicated. After 30 min, cells were harvested and RNA was extracted, with subsequent RT-PCR to produce cDNA. Fold-change of MT1 was quantified using qPCR and normalized to ACT1. The strength of MT1 induction increases with [Cu].
# 5. 8HQ Increases the Cu Burden on C. neoformans. Our working hypothesis for the mechanism of action of 8HQ is that it increases the microbial burden of bioreactive Cu. If 8HQ translocates Cu into the cell in a bioavailable form, we would expect expression levels of proteins involved in Cu homeostasis to be sensitive to that influx. […] Metallothionein proteins are known to detoxify Cu and other metals by encasing them within cysteine-rich coordination sites. Increased expression of MT1 is consistent with our hypothesis that 8HQ increases bioavailable Cu, which is sensed by the cell in the form of MT1 transcription.
# [5] = system: E. coli; test: E. coli dose response in M9 minimal medium; type: cell-based; details: no supplemental Cu
# Experimental: (§2) FIG. 9 is a graph showing that E. coli dose response to 8HQ and QBP. Under these conditions, 8HQ inhibits E. coli growth at concentrations above ˜1.5 mM, whereas QBP in nontoxic up to 10 mM. Supplemental Cu was not added in these experiments, so presumably 8HQ is using Cu present in the M9 minimal medium.
# (§3) 6. Broad Spectrum Activity The antimicrobial properties of oxine (8HQ) against a broad spectrum of fungal and bacterial pathogens has long been recognized. Taking advantage of this cytotoxic activity while minimizing damage to the host has prevented the application of these compounds to combat infectious disease in humans. […] We tested this hypothesis by comparing the cytotoxicity of 8HQ vs QBP against other microbes. Preliminary results indeed show a differential cytotoxicy of 8HQ vs QBP in S. aureus (FIG. 8), E. coli (FIG. 9) and M. marinum (data not shown). In these preliminary results, supplemental Cu was not added to the growth media, so presumably 8HQ uses the basal Cu present in the media to inflict its growth inhibitory action.
# [6] = system: M. marinum; test: M. marinum cytotoxicity comparison (data not shown); type: cell-based; details: no supplemental Cu, preliminary
# Excerpt: 6. Broad Spectrum Activity The antimicrobial properties of oxine (8HQ) against a broad spectrum of fungal and bacterial pathogens has long been recognized. Taking advantage of this cytotoxic activity while minimizing damage to the host has prevented the application of these compounds to combat infectious disease in humans.
# [7] = system: C. neoformans H99 strain; test: C. neoformans growth inhibition (OD600 growth curves, MIC); type: cell-based, Cryptococcus neoformans; details: for Growth inhibition of C. neoformans in the presence of 1 mM CuSO4: QBP up to the 100 μM dose tested; for MIC: Cryptococcus neoformans, H99STRAIN
# [8] = system: IFN-γ and LPS-activated primary bone marrow derived macrophage cells (BMM); test: Viability of activated primary bone marrow derived macrophages; details: doses up to 50-100 μM, even with supplemental Cu; data not shown
# [9] = system: S. aureus; test: S. aureus dose response in tryptic soy broth; type: cell-based; details: no supplemental Cu
# Experimental: as §2, with “8” for “9”, “S. Aureus” for “E. coli”, “˜150 μM,” for “˜1.5 mM,”, “˜2.5” for “10”, “tryptic soy broth” for “M9 minimal”
# as §3
# [10] = in vitro; 25° C.; cited from earlier work
# [11] = system: C. neoformans MT1/2Δ strain; details: SC media with 10 μM CuSO4
# Experimental: (§4) FIG. 7 is a graph showing the Effects of 8HQ on growth of C. neoformans mutants. A) WT C. neoformans and a MT1/2Δ[…], strain were grown in SC media with 10 μM CuSO4 and increasing [8HQ].
# [12] = system: C. neoformans CTR1/4Δ strain; details: YPEG media without Cu supplementation
# Experimental: as §4
# [13] = system: C. neoformans H99 strain; details: 10 μM or higher 8HQ in the presence of 10 μM CuSO4
# Experimental: as §1
# [14] = doses up to 50-100 μM, even with supplemental Cu
# [15] = growth inhibition of C. neoformans, * 1 mM Cu2+, read-out: MIC (with added Copper(II) Sulfate)
structure (smiles),measurement,setting,value
"CC1(C)C2CC3OB(c4cccc5cccnc45)O[C@]3(C)C1C2 (stereo in doubt) [QBP, quinoline boronic ester]",Adverse effects in mice,[1],no obvious adverse affects
same,MIC,[2],> 100 µM
same,C. neoformans growth with Cu and H2O2,"[2]; QBP/H2O2/Cu, SC media, 50 h at 30° C.",inhibited cell growth as well as 8HQ/Cu
same,"C. neoformans growth with Cu, without H2O2",[2]; 50 h at 30° C.,did not inhibit cell growth
same,Toxicity to C. neoformans,[2]; [14],nontoxic
same,Toxicity to J774A.1 cells,[3]; [14],nontoxic
same,"MT1 induction, compound alone",[4],do not cause robust induction of MT1
same,"MT1 response, QBP+Cu",[4]; QBP+Cu (10 μM each),responds identically to treatment with 10 μM CuSO4 alone
same,Concentration up to which nontoxic to E. coli,[5],up to 10 mM
same,Toxicity to M. marinum compared with 8HQ,[6],significantly less toxic
same,Growth inhibition of C. neoformans in the presence of 1 mM CuSO4,[7],nontoxic
same,MIC,[7]; [15],> 100 µM
same,Toxicity to BMM,[8],nontoxic
same,Concentration up to which nontoxic to S. aureus,[9],~2.5 mM
same,Rate constant of conversion to 8HQ upon reaction with H2O2,[10],0.25 M⁻¹ s⁻¹
"Oc1ccc2ncccc2c1 [6HQ, 6-hydroxyquinoline]",MIC,[2],> 100 µM
same,Growth inhibition of C. neoformans in the presence of 1 mM CuSO4,[7],does not inhibit growth
same,MIC,[7]; [15],> 100 µM
"Oc1cccc2cccnc12 [8HQ, 8-hydroxyquinoline]","C. neoformans growth with Cu, without H2O2",[2]; 50 h at 30° C.,inhibits growth
same,"IC50, cell viability of J774A.1 cells",[3]; medium supplemented with 10 μM CuSO4,sub-μM
same,pIC50,"[3]; read-out: IC50, cell viability of J774A.1 cells, no supplemental Cu",~5.30
same,8HQ concentration at which growth defect begins,[11],6.25 µM
same,Growth of transporter mutant on addition of 8HQ,[12],promotes growth
same,"MT1 induction, compound alone",[4],do not cause robust induction of MT1
same,"MT1 levels, 8HQ+Cu",[4]; 8HQ+Cu (10 pM each),MT1 levels greater than what is seen with 100 μM CuSO4 alone
same,Colony-forming units (CFUs) after 50 h,[13],absence of CFUs
same,Concentration above which E. coli growth is inhibited,[5],~1.5 mM
same,"C. neoformans growth (OD600), compound tested individually","[7]; 100 μM 8HQ alone, SC media, 50 hours",not affected
same,MIC,"[7]; read-out: MIC (no Cu added), growth inhibition of C. neoformans, no Cu added",> 100 µM
same,MIC,"[7]; read-out: MIC (with added Copper(II) Sulfate), growth inhibition of C. neoformans, * 10 M Cu2+",5 µM
same,MIC,"[7]; read-out: MIC of 8HQ with supplemental Cu, 10 μM supplemental Cu (CuSO4)",5 µM
same,MIC,"[7]; read-out: MIC of 8HQ with supplemental iron, 10 μM supplemental iron",50 µM
same,MIC,"[7]; read-out: MIC of 8HQ with supplemental silver, 10 μM supplemental silver",25 µM
same,MIC,"[7]; read-out: MIC of 8HQ with supplemental zinc, 10 μM supplemental zinc",50 µM
same,Concentration above which S. aureus growth is inhibited,[9],~150 µM
Cc1cc(-c2ccc(S(=O)(=O)O)cc2)c2ccc3c(-c4ccc(S(=O)(=O)O)cc4)cc(C)nc3c2n1 [BCS],"Change in MT1 expression, control chelator",[4],does not lead to a change in MT1 expression
"O=S(=O)([O-])[O-].[Cu+2] [copper, Copper(II) Sulfate]","C. neoformans growth (OD600), copper tested individually","[7]; 1 mM copper alone, SC media, 50 hours",not affected
